Measured values taken from ChEMBL document CHEMBL1201862, “PubChem BioAssay data set” (2004).
Where “and” joins values, the source holds several entries; their conditions need not be identical. Equal entries are not always repeated. Calls of active or inactive are those of the source.

Tests used:
[1] = target: T1, Sentrin-specific protease 7 (Homo sapiens, UniProt Q9BQF6); assay: inhibition of human SENP7 cleavage activity – biochemical, luminescence, set 2, SAR follow-up (AID 588600); assay type: functional
T1 sequence (Q9BQF6 whole entry): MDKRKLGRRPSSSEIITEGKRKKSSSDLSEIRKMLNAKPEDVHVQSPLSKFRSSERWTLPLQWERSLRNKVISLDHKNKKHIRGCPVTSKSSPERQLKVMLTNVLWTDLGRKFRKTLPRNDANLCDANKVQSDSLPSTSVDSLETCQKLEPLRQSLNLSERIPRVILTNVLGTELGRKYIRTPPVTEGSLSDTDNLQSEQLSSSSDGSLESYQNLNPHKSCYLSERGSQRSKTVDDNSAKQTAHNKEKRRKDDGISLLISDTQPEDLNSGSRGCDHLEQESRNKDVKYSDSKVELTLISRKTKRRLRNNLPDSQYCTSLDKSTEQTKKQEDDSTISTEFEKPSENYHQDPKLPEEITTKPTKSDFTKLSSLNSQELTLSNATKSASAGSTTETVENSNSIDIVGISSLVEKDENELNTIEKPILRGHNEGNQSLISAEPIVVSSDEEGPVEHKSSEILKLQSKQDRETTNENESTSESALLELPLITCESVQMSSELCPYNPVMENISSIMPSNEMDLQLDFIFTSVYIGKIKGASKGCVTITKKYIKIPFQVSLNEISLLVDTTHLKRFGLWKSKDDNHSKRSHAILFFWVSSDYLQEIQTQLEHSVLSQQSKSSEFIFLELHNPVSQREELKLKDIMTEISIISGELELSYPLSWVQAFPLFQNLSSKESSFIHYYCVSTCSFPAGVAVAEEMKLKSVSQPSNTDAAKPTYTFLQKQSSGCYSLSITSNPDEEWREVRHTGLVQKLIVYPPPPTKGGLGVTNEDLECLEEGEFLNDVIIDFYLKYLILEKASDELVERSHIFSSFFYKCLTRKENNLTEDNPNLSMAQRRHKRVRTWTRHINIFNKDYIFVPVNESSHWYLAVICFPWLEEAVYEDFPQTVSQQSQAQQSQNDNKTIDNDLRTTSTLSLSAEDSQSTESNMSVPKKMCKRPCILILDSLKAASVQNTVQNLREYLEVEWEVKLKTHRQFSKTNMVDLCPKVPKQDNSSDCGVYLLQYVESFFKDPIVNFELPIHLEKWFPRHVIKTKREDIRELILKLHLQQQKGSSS

[2] = target: T2, Sentrin-specific protease 8 (Homo sapiens, UniProt Q96LD8); assay: inhibition of sentrin protease 8 – biochemical, luminescence, set 2, SAR follow-up (AID 588601); assay type: functional
T2 sequence (Q96LD8 whole entry): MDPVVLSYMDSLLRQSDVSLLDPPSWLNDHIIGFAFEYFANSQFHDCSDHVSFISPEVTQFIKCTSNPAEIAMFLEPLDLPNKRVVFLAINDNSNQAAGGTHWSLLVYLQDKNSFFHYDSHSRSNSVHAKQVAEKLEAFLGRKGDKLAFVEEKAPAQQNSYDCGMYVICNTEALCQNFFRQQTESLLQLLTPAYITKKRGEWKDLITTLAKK

[3] = target: T3, Sentrin-specific protease 6 (Homo sapiens, UniProt Q9GZR1); assay: inhibition of human SENP6 catalytic domain – biochemical, luminescence, set 2, SAR follow-up (AID 588598); assay type: functional
T3 sequence (Q9GZR1 whole entry): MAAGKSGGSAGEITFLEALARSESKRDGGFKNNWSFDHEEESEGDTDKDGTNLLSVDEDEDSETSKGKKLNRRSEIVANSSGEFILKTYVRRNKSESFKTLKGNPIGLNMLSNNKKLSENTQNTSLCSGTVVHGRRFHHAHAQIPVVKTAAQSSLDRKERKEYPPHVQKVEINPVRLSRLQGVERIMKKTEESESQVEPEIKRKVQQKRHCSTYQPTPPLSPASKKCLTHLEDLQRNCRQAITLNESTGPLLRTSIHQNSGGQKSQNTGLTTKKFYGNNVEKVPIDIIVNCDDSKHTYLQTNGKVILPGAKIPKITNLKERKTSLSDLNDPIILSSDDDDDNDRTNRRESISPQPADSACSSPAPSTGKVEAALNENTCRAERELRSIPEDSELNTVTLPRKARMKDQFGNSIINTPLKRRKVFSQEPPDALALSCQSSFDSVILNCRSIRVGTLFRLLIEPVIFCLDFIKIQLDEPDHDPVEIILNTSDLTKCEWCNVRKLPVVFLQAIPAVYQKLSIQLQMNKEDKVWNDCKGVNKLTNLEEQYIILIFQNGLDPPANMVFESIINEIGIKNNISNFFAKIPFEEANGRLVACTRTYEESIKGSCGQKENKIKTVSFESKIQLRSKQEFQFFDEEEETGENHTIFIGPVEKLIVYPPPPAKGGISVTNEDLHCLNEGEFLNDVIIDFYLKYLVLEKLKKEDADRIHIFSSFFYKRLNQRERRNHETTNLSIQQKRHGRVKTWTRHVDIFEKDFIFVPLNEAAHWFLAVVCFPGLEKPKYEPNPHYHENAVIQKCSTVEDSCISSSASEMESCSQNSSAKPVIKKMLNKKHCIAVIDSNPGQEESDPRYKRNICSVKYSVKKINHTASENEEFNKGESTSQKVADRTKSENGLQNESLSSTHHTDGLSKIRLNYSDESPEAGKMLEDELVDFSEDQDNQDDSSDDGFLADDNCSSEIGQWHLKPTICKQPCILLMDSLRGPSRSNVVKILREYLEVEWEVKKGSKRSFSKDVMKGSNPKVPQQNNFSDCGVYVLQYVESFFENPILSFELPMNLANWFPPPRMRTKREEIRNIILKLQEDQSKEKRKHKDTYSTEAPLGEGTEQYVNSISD

Caspase-3 = target: T4, Caspase-3 (Homo sapiens, UniProt P42574); assay: inhibition of recombinant caspase-3 activity – biochemical, luminescence, set 2, selectivity assay for SENP protease inhibitor project, SAR follow-up (AID 588599); assay type: functional
T4 sequence (P42574 whole entry): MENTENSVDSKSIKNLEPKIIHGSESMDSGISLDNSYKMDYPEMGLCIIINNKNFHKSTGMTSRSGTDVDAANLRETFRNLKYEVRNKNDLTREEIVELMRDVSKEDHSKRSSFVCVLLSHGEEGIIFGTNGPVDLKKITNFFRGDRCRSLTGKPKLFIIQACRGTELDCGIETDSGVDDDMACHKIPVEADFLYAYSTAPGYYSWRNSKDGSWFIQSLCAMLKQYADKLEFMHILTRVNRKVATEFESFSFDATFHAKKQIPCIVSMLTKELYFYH

Candida albicans [4] = assay: Candida growth effect without fluconazole – C. albicans CaCi-2, dry powder, counter-screen for antifungal drug resistance project, dose response (AID 488802); assay type: functional, organism-based
NIH3T3 = assay: mammalian cell viability counter-check – Alamar Blue, fluconazole, dry powder, cytotoxicity control for antifungal drug resistance project, dose response (AID 488809); assay type: functional, cell-based; conditions: Mus musculus
Candida albicans [5] = assay: antifungal activity against resistant Candida strain – CaCi-8, fluconazole, Alamar Blue, dry powder, dose response (AID 488807); assay type: functional, organism-based
[6] = target: Latent membrane protein 1 (Human herpesvirus 4 (strain B95-8), UniProt P03230); assay: LMP1 TES1 pathway selectivity over dsRED control – imaging, HEK293T, dual-color eGFP/dsRED, cherry-picks, selectivity assay for LMP1 NF-kB inhibitor project, dose response (AID 588398); assay type: functional, cell-based
Chain of Latent membrane protein 1 (P03230 whole entry): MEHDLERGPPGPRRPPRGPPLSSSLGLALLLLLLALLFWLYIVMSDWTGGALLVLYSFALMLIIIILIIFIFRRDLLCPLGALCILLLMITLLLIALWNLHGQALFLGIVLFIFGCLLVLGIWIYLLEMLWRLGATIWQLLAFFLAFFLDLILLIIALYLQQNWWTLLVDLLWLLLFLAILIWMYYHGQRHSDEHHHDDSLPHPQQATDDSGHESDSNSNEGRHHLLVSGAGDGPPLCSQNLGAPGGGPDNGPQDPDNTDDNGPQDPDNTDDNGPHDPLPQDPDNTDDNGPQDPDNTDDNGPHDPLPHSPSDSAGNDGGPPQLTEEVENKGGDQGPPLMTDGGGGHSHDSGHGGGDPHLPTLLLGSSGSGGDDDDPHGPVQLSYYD

[7] = non-specific 3'UTR reporter inhibition in Clone20-Shn3RL – cell-based, Renilla luciferase, cherry-picked, counter-screen for Shn3 inhibitor project, dose response (AID 624133); assay type: functional
HEK293 = assay: EBV LMP1 TES2 canonical NF-kB signalling blockers – cell-based, HEK293, luciferase, cherry-pick, dose response (AID 588343); assay type: functional; conditions: Homo sapiens
[8] = Fluorescence-based cell-based high throughput dose response assay for inhibitors of the interaction of nucleotide-binding oligomerization domain containing 2 (NOD2) and the receptor-interacting serine-threonine kinase 2 (RIPK2).; assay type: functional; conditions: Homo sapiens
[9] = reduction of Shn3 3'UTR-driven luciferase in osteoblasts – cell-based, Clone20 osteoblasts, firefly luciferase, cherry-picked, dose response (AID 624132); assay type: functional;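 note: firefly luciferase luminescence from reporter carrying the Shn3 3'UTR in osteoblasts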
Beta Lactamase = Beta Lactamase (Pseudomonas aeruginosa, UniProt Q932Y6); assay: BLA reporter interference, concentration series – BLA reporter cells, FRET fluorescence, artefact control for NOD2-RIPK2 interaction inhibitor project, dose response (AID 651552); assay type: functional, cell-based
Chain of Beta Lactamase (Q932Y6 whole entry): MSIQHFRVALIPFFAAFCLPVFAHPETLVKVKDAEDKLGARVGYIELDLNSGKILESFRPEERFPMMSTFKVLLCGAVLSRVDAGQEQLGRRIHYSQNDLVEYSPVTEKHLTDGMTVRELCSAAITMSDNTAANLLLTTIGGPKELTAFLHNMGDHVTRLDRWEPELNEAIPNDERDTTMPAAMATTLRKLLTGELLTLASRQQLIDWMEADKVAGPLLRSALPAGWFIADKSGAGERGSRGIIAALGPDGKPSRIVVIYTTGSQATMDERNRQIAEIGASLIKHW

[10] = loss of viability in HepG2 cells – cell-based, CellTiter-Glo, cherry-picked, cytotoxicity control for Shn3 inhibitor project, dose response (AID 624134); assay type: functional
[11] = target: Induced myeloid leukemia cell differentiation protein Mcl-1 (Homo sapiens, UniProt Q07820); assay type: functional
Chain of Induced myeloid leukemia cell differentiation protein Mcl-1 (Q07820 whole entry): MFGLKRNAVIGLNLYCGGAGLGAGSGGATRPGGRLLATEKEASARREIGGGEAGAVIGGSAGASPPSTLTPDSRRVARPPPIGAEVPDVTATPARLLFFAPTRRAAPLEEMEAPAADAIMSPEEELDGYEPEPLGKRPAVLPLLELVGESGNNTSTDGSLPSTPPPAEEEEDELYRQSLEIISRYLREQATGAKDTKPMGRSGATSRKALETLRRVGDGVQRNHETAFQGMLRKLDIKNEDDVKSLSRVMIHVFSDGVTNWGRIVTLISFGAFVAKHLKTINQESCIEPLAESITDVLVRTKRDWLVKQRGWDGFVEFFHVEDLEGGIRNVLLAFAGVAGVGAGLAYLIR

Beta-galactosidase = Beta-galactosidase (Escherichia coli, UniProt Q8VNN2); assay: detection-enzyme interference by beta-gal modulators – biochemical, E. coli enzyme, set 3, artefact control for CCR6 antagonist project, dose response (AID 504712); assay type: functional
Chain of Beta-galactosidase (Q8VNN2 whole entry): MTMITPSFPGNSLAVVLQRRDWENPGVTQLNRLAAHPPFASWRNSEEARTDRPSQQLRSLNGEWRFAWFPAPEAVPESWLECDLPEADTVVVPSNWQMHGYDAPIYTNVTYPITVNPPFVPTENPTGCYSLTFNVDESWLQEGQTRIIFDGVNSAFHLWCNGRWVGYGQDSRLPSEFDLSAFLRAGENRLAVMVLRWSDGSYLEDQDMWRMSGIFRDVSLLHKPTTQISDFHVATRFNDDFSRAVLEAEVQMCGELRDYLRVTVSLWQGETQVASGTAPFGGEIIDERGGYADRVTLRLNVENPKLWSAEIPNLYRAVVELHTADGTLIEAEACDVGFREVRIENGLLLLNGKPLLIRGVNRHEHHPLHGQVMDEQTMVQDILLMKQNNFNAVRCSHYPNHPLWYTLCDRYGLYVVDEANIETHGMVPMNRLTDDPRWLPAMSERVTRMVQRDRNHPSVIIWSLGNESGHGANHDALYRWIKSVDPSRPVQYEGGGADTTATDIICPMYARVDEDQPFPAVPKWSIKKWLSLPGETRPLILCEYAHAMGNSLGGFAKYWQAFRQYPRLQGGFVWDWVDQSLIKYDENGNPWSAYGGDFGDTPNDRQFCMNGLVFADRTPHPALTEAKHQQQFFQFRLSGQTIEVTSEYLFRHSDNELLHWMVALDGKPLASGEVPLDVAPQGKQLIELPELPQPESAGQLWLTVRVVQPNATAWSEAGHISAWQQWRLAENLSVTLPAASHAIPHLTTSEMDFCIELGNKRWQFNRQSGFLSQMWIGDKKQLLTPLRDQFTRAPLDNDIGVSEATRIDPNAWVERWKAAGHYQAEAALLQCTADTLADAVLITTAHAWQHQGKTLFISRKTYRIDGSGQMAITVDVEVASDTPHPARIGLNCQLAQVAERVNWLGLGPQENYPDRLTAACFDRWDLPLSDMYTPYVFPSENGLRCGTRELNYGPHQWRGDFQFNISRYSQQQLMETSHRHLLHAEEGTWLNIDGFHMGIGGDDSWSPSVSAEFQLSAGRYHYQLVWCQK

[12] = target: Neurotensin receptor type 1 (Homo sapiens, UniProt P30989); assay type: functional;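 note: Image-based confirmatory dose-response assay measuring agonist activity at NTR1; NTR1-expressing U2OS osteosarcoma cells imaged for beta-arrestin GFP spot formation; agonist potency where compounds increase beta-arrestin recruitment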
Chain of Neurotensin receptor type 1 (P30989 whole entry): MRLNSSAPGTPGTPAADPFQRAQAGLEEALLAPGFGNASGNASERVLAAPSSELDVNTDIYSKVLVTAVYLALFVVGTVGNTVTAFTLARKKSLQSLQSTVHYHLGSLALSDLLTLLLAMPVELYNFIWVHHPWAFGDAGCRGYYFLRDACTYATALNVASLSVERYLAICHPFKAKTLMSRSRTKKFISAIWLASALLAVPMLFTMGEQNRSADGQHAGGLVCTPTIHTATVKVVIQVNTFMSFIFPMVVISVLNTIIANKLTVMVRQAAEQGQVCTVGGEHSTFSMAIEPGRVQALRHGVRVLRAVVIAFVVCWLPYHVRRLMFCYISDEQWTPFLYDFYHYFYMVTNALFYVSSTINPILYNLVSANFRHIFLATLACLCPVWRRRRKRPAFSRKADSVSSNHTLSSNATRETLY

[13] = THP-1 cell cytotoxicity, cytotoxicity control, set 5 (AID 588443); assay type: functional
[14] = Luminescence Cell-Based Dose Confirmation HTS to Identify Inhibitors of Platelet Dense Granule Release. [Related pubchem assays: 1663 (Primary HTS), 1678 (Summary of Project)]; assay type: functional
[15] = target: Luciferin 4-monooxygenase (Photinus pyralis, UniProt P08659); assay: inhibition of purified Photinus pyralis luciferase – biochemical, luminescence, dose response (AID 1891)
Chain of Luciferin 4-monooxygenase (P08659 whole entry): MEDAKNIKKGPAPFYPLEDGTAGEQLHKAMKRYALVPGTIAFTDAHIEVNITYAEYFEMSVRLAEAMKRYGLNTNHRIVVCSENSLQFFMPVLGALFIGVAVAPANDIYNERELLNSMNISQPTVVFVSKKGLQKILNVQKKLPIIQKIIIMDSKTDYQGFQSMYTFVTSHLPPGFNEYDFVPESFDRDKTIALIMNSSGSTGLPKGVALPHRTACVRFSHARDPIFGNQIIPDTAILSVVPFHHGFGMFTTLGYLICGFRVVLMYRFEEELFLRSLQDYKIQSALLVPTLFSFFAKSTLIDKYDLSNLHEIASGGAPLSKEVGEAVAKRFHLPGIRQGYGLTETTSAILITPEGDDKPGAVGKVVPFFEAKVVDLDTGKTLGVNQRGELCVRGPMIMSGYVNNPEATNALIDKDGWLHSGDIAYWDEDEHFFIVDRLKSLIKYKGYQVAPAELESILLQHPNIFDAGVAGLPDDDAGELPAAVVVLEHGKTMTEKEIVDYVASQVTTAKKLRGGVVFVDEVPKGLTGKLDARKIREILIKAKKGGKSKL

[16] = Vero cell viability loss – purified and synthesized compounds, set 6, cytotoxicity control for M. tuberculosis inhibitor project, dose response (AID 588445); assay type: functional; conditions: Mycobacterium tuberculosis
[17] = target: Protein disulfide-isomerase (Homo sapiens, UniProt P07237); assay: inhibition of PDI-driven insulin aggregation – biochemical, turbidity, absorbance, cherry-picked samples, dose response (AID 602350); assay type: functional
Chain of Protein disulfide-isomerase (P07237 whole entry): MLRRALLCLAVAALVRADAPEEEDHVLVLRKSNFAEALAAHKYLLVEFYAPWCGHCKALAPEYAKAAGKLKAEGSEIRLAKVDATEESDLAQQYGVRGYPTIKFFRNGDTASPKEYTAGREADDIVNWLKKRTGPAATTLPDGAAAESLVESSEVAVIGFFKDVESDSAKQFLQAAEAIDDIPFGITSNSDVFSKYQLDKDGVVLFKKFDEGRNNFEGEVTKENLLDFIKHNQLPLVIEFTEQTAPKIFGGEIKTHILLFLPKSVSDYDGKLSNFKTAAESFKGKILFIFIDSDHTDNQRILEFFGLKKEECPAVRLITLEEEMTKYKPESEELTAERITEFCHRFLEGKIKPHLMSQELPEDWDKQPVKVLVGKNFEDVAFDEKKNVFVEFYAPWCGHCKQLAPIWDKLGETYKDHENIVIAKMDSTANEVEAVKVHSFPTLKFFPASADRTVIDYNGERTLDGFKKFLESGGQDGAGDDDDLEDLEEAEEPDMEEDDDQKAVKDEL

[18] = target: Scavenger receptor class B member 1 (Mus musculus, UniProt Q61009); assay: blockers of DiI-HDL lipid transfer via SR-BI – cell-based, ldlA[mSR-BI] CHO, DiI fluorescence, dry powder, set 10, dose response (AID 624029); assay type: functional
Chain of Scavenger receptor class B member 1 (Q61009 whole entry): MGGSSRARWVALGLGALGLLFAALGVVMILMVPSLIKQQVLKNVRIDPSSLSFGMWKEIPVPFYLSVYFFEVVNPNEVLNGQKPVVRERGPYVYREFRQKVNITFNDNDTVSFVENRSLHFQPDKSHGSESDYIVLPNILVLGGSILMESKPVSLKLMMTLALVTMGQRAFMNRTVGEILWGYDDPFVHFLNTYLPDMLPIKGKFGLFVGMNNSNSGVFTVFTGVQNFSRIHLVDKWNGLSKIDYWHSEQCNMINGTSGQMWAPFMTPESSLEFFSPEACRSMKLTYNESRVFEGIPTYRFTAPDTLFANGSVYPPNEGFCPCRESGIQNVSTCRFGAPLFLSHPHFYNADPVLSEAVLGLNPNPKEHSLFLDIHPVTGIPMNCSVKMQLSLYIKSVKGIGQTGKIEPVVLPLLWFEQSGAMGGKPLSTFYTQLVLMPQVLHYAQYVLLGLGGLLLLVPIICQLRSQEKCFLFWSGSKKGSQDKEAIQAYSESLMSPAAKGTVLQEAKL

NS(=O)(=O)c1ccc(CCNC(=O)C(=O)c2c[nH]c3ccccc23)cc1
IC50 [1]: > 99 µM (inactive) | IC50 [2]: > 99 µM (inactive) | IC50 [3]: > 99 µM (inactive) | IC50 (Caspase-3): > 99 µM (inactive)

COc1ccc(NC(=O)Cn2c3ccccc3c3nc4n(c(=O)c32)CCS4)cc1
AC50 (Candida albicans [4]): 50.1 µM (active) | AC50 (NIH3T3): 34.2 µM (active) | AC50 (Candida albicans [5]): 12.7 µM (active)

CCOc1ccc(/C=C/[N+](=O)[O-])c2ccccc12
AC50 [6]: 1.63 µM (active) | AC50 [7]: 13.9 µM (active) | AC50 (HEK293): 4.67 µM (active) | IC50 [8]: 1.76 µM (active) | AC50 [9]: 4.27 µM (active) | IC50 (Beta Lactamase): 43.1 µM (inactive) | AC50 [10]: 3.78 µM (active) | IC50 [11]: 2.18 µM (active) | IC50 (Beta-galactosidase): > 66.6 µM (inactive) | EC50 [12]: 9.56 µM (active)

O=C(NCCc1ccc(Cl)cc1)c1ccc(CNc2c(N3CCOCC3)c(=O)c2=O)cc1
CC50 [13]: > 100 µM (active) | EC50 [14]: > 112 µM (not active) | EC50 [15]: > 112 µM (not active) | CC50 [16]: > 100 µM (active)

C[C@@H]1CN([C@H](C)CO)C(=O)c2cc(NC(=O)Cc3cn(C)c4ccccc34)ccc2O[C@H]1CN(C)S(=O)(=O)c1ccc(F)cc1
AC50 [17]: 1.26 µM (active) and 16.4 µM (active) | AC50 [18]: 0.00202 µM (active)
